In PMC9325861, “Mouse precision-cut liver slices as an ex vivo model to study drug-induced cholestasis” (Archives of Toxicology, 2022):
Counter-ions that a name gives are not always drawn. Like-named read-outs stand apart in the source and are kept apart here.

What was measured:
[1] = test system: mouse PCLS; test: Viability of mouse PCLS by ATP content (ATP bioluminescence, normalized to protein); assay type: cell-based; details: for IC50 / CC50: Mus musculus; for IC 5% (best-fit) / IC 25% (best-fit): Table S3, unit not given; for Enhancement of drug toxicity by addition of the BA mixture: extra sum of squares F-test of fits with vs w/o BA
Method: (§1) In short, freshly prepared PCLS were transferred to 12-well plates (Greiner bio-one GmbH, Austria), one slice per well. Each well was filled with 1.3 mL pre-heated (37 ℃) and oxygenated (80%) Williams Medium E (1X, glutaMAX-1), which had been supplemented with 25 mM D-glucose monohydrate and 50 μg/ml Gentamicin (denoted as WME GG). […] The DMSO concentration used was below 0.5% in the incubation medium, equivalent to DMSO concentrations in solutions prepared by dilution of BA stock solutions with WME GG.
ATP was extracted by homogenization, followed by the centrifugation of the homogenate (16,000g at 4 °C for 5 min). The supernatant was collected, and the pellet was left to dry. An ATP Bioluminescence Assay Kit (Roche Diagnostics, Mannheim, Germany) was used to determine ATP content in the supernatant. The dried pellet was used to determine the total protein content of the PCLS using the Bio-Rad DC Protein Assay (Bio-Rad, Munich, Germany). The obtained ATP values were then normalized for the total protein content of the slice.
A minimum of three mouse livers was used for each experiment, using PCLS in triplicate from each liver. GraphPad Prism 8.4.3 was used to perform statistical analysis, using a Student’s unpaired two-tailed T-test to compare two means, or a one-way ANOVA to compare multiple means. One-way ANOVA was followed by either Tukey’s multiple comparisons test to compare all means within a dataset, or Dunnett’s multiple comparisons test to compare all means with their own control mean. Nonlinear regression analysis was followed by an extra sum of squares F-test to compare two fits. mRNA expression levels are shown as Log2(fold induction) (− ΔΔCt), though the data was statistically analyzed using the cycle threshold (ΔCt) values. Differences between groups were considered significant when p < 0.05.

[2] = test system: Bsep (Abcb11); test: qRT-PCR gene expression in mouse PCLS: Bsep; assay type: cell-based; details: 48 h
Method: (§2) In short, freshly prepared PCLS were transferred to 12-well plates (Greiner bio-one GmbH, Austria), one slice per well.
(§3) Three PCLS incubated under a given condition were pooled in a 1.5-mL Rnase-free test tube, snap-frozen in liquid nitrogen, and stored at – 80 °C until analysis. RNA was isolated using a FavorPrep Tissue Total RNA Mini Kit (Favorgen, Vienna, Austria). Subsequently, the RNA yield was quantified using a NanoDrop One instrument (Thermo Fisher Scientific, Massachusetts, USA). Isolated RNA was reverse-transcribed to cDNA using a cDNA synthesis kit (Reverse Transcription System, Promega, Benelux B.V.). The cDNA samples were subsequently loaded in the thermal cycler with a program set to 22 °C for 10 min, 42 °C for 15 min, and 95 °C for 5 min.
qRT-PCR was used to determine the relative mRNA expression levels for the mouse target genes: Bsep (Abcb11), Mrp2 (Abcc2), Mrp3 (Abcc3), Mrp4 (Abcc4), Ntcp (Slc10a1), Fxr (Nr1h4), Cyp7a1 (Cyp7a1), Collagen type 1a1 (Col1a1), Hsp47 (Serpinh1). Primer sequences of the genes tested are given in Supplementary Table S1. QRT-PCR was performed using, the dye, FastStart Universal SYBR Green Master Mix (Roche Diagnostics Netherlands B.V., Almere, the Netherlands) with the ViiA™ 7 Real-Time PCR System (Applied Biosystems, Bleiswijk, the Netherlands). The first cycle constituted 10 min at 95 °C, followed by 40 cycles of 15 s at 95 °C, 30 s at 60 °C and 30 s at 72 °C, followed by 1 cycle dissociation stage (15 s: 95 °C, 60 °C and 95 °C). A minimum of four mouse livers was used for each experiment, using three PCLS per condition. Samples were measured in duplicates. […] Results are expressed as log2(fold change).

[3] = test system: Hsp47 (Serpinh1); test: qRT-PCR gene expression in mouse PCLS: Hsp47; assay type: cell-based; details: 48 h, in the presence of BAs, highest concentration (30 µM CPZ)
Method: as §1
as §3, with “The cDNA samples were subsequently loaded in the thermal cycler with a program set to 22 °C for 10 min, 42 °C for 15 min, and 95 °C for 5 min.” left out
(§4) qRT-PCR was used to determine the relative mRNA expression levels for the mouse target genes: Bsep (Abcb11), Mrp2 (Abcc2), Mrp3 (Abcc3), Mrp4 (Abcc4), Ntcp (Slc10a1), Fxr (Nr1h4), Cyp7a1 (Cyp7a1), Collagen type 1a1 (Col1a1), Hsp47 (Serpinh1). […] Samples were measured in duplicates. […] Results are expressed as log2(fold change).

[4] = test system: Fxr (Nr1h4); test: qRT-PCR gene expression in mouse PCLS: Fxr; assay type: cell-based; details: 48 h, 30 µM CPZ in the presence of the humanized BA mixture
Method: as §1
as §3, with “The cDNA samples were subsequently loaded in the thermal cycler with a program set to 22 °C for 10 min, 42 °C for 15 min, and 95 °C for 5 min.” left out
as §4

[5] = test system: Bsep; test: Western blot of Bsep protein in mouse PCLS; assay type: cell-based; details: 48 h
Method: as §2
In brief, the protein was extracted from three slices per treatment, and protein samples were denatured (75 °C for 10 min). […] Gels were blotted onto 0.2-μm polyvinylidene fluoride membranes using a Trans-Blot Turbo Transfer System (Bio-Rad, Munich, Germany), set to ramp up to 25 V in 15 min, at a constant current of 2.5 A. Membranes were then treated for 1 h with a protein blocking agent to prevent non-specific binding of antibodies, and incubated at 4 °C overnight with Bsep primary antibody (monoclonal antibody rabbit anti-Bsep, 1:2500, Tebu-Bio, Le Perray-en-Yvelines, France), Ntcp primary antibody (polyclonal antibody, rabbit anti-Ntcp, 1:2000, Tebu-Bio), and vinculin (116 kDa) primary antibody (monoclonal antibody, mouse anti-Vinculin, 1:500, Santa Cruz, California, USA). The following day, membranes were incubated with matching secondary antibodies for 1 h (Goat anti-rabbit HRP (Bsep and Ntcp), 1:2000; Rabbit anti-mouse HRP (vinculin), 1:5000, Dako, Santa Clara). Proteins were then visualized by adding Clarity Western ECL blotting substrate (Bio-Rad, Munich, Germany) and using a ChemiDoc Touch Imaging System (BioRad, Munich, Germany) for imaging of the resulting chemiluminescence. Afterward, Bsep and Ntcp expression was normalized by vinculin expression.

[6] = test system: human PCLS; design: method as in Vatakuti et al. [2017]; details: 30 µM CPZ, without BA mixture, ref Vatakuti et al. [2017]; cited from earlier work
[7] = test system: primary human hepatocytes; design: method as in Ogimura et al. [2017]; details: in the presence of a BA mixture, ref Ogimura et al. [2017], read-out: Concentration with 50% toxicity; cited from earlier work
[8] = test system: rat PCLS; design: method as in Starokozhko et al. [2017a]; details: control 156.5, ref Starokozhko et al. [2017a]; cited from earlier work
[9] = test system: MRP2; design: method as in Pedersen et al. [2008]; Morgan et al. [2013]; details: ref Pedersen et al. [2008]; Morgan et al. [2013]; cited from earlier work
[10] = non-toxic concentration (CPZ 15 μM, CSA 1 μM, GB 25 μM), vs control with no drug and no BAs

With `CN(C)CCCN1c2ccccc2Sc2ccc(Cl)cc21` [CPZ, Chlorpromazine hydrochloride] as the compound, how does the IC50 ([1]; 48 h, read-out: IC 50% (best-fit), Table S3, mouse PCLS, 48 h, w/o BA, unit not printed in table (µM in Fig. 4)) read?
Its IC50 is 29.1 µM.

What about the IC50 ([1]; 48 h, read-out: IC 50% (best-fit), Table S3, mouse PCLS, 48 h, with BA, unit not printed in table (µM in Fig. 4)) of the same compound?
The IC50 was 21.6 µM.

And the IC50 ([1]; 48 h, read-out: IC50 (50% loss in viability, ATP content), mouse PCLS, 48 h, one value or range given for with and w/o BA)?
Its IC50 is 22 to 29 µM.

What about the CC50 ([1]; 48 h, read-out: IC50 (50% loss in viability, ATP content), mouse PCLS, 48 h, w/o BA mixture) of the same compound?
The CC50 was 29 µM.

And the CC50 ([1]; 48 h, read-out: IC50 (50% loss in viability, ATP content), mouse PCLS, 48 h, with BA mixture)?
The CC50 was 22 µM.

What about the “IC 5% (best-fit)” value ([1]; 5% decrease in ATP content, 48 h, w/o BA) of the same compound?
Its value is 15.4.

What about the “IC 5% (best-fit)” value ([1]; 5% decrease in ATP content, 48 h, with BA) of the same compound?
Its value is 11.4.

What about the “IC 25% (best-fit)” value ([1]; 25% decrease in ATP content, 48 h, w/o BA) of the same compound?
Its value is 22.9.

And the “IC 25% (best-fit)” value ([1]; 25% decrease in ATP content, 48 h, with BA)?
Its value is 17.0.

And the “Enhancement of drug toxicity by addition of the BA mixture” value ([1]; mouse PCLS, 48 h)?
Its value is “enhanced the toxicity of CPZ considerably”.

What about the Bsep gene expression ([2]; in the presence and absence of BAs, vs control without drug) of the same compound?
The Bsep gene expression was “reduces”.

What about the Hsp47 gene expression [3] of the same compound?
Its Hsp47 gene expression is “significantly increased”.

What about the Fxr gene expression [4] of the same compound?
The Fxr gene expression was “small, but not significant, increase”.

What about the “Bsep protein expression (western blot band intensity)” value (“Bsep protein expression” below) ([5]; non-toxic concentration (CPZ 15 μM, CSA 1 μM), in the presence of the BA mixture) of the same compound?
Its value is “less pronounced”.

What about the “Bsep protein expression” value [5, 10] of the same compound?
Its value is “significant decrease in band intensity”.

And the “Decrease in ATP content” value [6]?
The value was 40%.

For `COc1ccc(Cl)cc1C(=O)NCCc1ccc(S(=O)(=O)NC(=O)NC2CCCCC2)cc1` [GB, Glibenclamide], which IC50 ([1]; 48 h, read-out: IC50 (50% loss in viability, ATP content)) is on record?
Its IC50 is 70 µM.

What about the IC50 ([1]; read-out: IC 50% (best-fit)) of the same compound?
Its IC50 is 69.7 µM.

What about the “IC 5% (best-fit)” value ([1]; IC the same with and w/o BA) of the same compound?
The value was 37.9.

What about the “IC 25% (best-fit)” value ([1]; IC the same with and w/o BA) of the same compound?
Its value is 55.5.

And the “Enhancement of drug toxicity by addition of the BA mixture” value ([1]; mouse PCLS, 48 h)?
The value was “not observed”.

And the Bsep gene expression ([2]; 25 µM GB, when BAs are present)?
The Bsep gene expression was “increases”.

And the Bsep gene expression ([2]; 65 μM GB, when BAs are present)?
The Bsep gene expression was “decreases Bsep expression significantly”.

And the “Bsep protein expression” value [5, 10]?
Its value is “did not induce any significant changes”.

What about the IC50 [7] of the same compound?
The IC50 was 103 µM.

And the “Intracellular GCA concentration after drug incubation” value [8]?
The value was 364.3 pmol/mg protein.

What about the “Effect on MRP2 activity on a protein level” value [9] of the same compound?
Its value is “stimulate MRP2 activity”.
